Where two headings read alike, the source gives them in different places.
How the values were obtained:
[1] = In vivo microdialysis of unbound gepotidacin in blood, muscle and prostate of healthy and E. coli infected rats; set-up: species or system rat; conditions: for Kp uu: rat, iv, 20 mg/kg
From the text: The example herein describes microdialysis experiments in E. coli infected rats to measure tissue distribution of unbound gepotidacin. In vivo microdialysis experiments simultaneously determined unbound gepotidacin concentrations in rat prostate, muscle, and blood. It is important to understand the tissue distribution of unbound gepotidacin, especially in the target prostate tissue, since gepotidacin must diffuse through capillary membranes to reach the prostate. An assumption that the plasma concentration of gepotidacin represents a suitable surrogate of prostate concentrations, without prostate tissue confirmation, may lead to erroneous conclusions, especially since the pathogen is localized in the prostate.
(§1) An Escherichia coli prostatitis model in rats was obtained as follows. Four days before microdialysis, rats (n=11) were infected with Escherichia coli ATCC 13441 in the prostatic urethra, to induce E. coli prostatitis, at an inoculum of 10^7 CFU/rat. Healthy rats (n=9) were not infected with E. coli as control.
(§2) The day before the experiment, two CMA/20 probes (membrane length 10 mm, Harvard Apparatus, Courtaboeuf France) were inserted into right jugular vein and the right hind leg muscle of healthy and infected rats under anesthesia and analgesic treatment. In parallel, catheters were inserted into the femoral vein and artery to administer gepotidacin intravenously (IV) and to collect blood samples for determination of total plasma gepotidacin concentrations, respectively. The rats were allowed to recover consciousness, and food was withdrawn for 12 hours.
(§3) On the day of the experiment, healthy control and infected rats were re-anesthetized and a CMA/20 Elite probe (membrane length 4 mm) was inserted into the prostate. All probes were connected to infusion pumps and perfused with Ringer containing a calibrator (((R)-1-((4-(((2,3-dihydro-[1,4]oxathiino[2,3-c]pyridin-7-yl)methyl)amino)piperidin-1-yl)methyl)-1,2-dihydro-3H,8H-2a,5,8a-triazaacenaphthylene-3,8-dione; […]) at a flow rate of 0.5 μL/min with Ringer. After an equilibration period, gepotidacin was administered by IV bolus at a dose of 20 mg/kg. Blood, muscle, and prostate dialysates were collected every 10 minutes for 90 minutes, and then every 30 minutes […]. Seven blood samples were also collected for analysis of gepotidacin pharmacokinetics in total plasma. Gepotidacin concentrations were measured in dialysates and in plasma by LC-MS/MS.
Pharmacokinetic (PK) parameters were determined in each individual rat by a noncompartmental approach according to standard procedures and with the software Phoenix WinNonLin 7. (Certara, Princeton, NJ) Total unbound body clearance (CLu) was calculated as CLu=dose/AUCu,blood, where AUCu,blood is the total area under the unbound blood concentration-versus-time curve from zero to infinity, equal to the area under the curve from zero to the last measured concentration AUC0-last,u,blood added to the area under the curve from the last measured concentration to infinity AUClast-infinity,u,blood. AUC0-last,u,blood was calculated by linear-logarithmic trapezoidal method. AUClast-infinity,u,blood the area remaining under the curve after the last measured concentration, C(last)u,blood was determined from C(last)u,blood/keblood. The elimination rate constant (keblood) and its corresponding half-life (t1/2,blood) were estimated by least squares fit of the data points (log concentration-time). The linear-logarithmic trapezoidal method was used to compute the area under the unbound blood concentration-versus-time moment curve AUMC0-last,u,blood from zero to the last measured concentration. AUMClast-infinity,u,blood the area remaining under the curve after the last measured concentration was determined from: tlast×C(last)u,blood/keblood+C(last)u,blood/keblood^2. The mean residence time from zero to infinity, MRT0-infinity was determined from AUMC0-infinity,u,blood/AUC0-infinity,u,blood. […]

[2] = Total plasma pharmacokinetics of gepotidacin in healthy and E. coli infected rats; assay type: in vivo, rat; conditions: IV bolus 20 mg/kg; for Vd / half-life / clearance: rat, plasma, iv, 20 mg/kg; for clearance: read-out: CLt,plasma
From the text: as §1, §2, §3
Pharmacokinetic (PK) parameters were determined in each individual rat by a noncompartmental approach according to standard procedures and with the software Phoenix WinNonLin 7. (Certara, Princeton, NJ) Total unbound body clearance (CLu) was calculated as CLu=dose/AUCu,blood, where AUCu,blood is the total area under the unbound blood concentration-versus-time curve from zero to infinity, equal to the area under the curve from zero to the last measured concentration AUC0-last,u,blood added to the area under the curve from the last measured concentration to infinity AUClast-infinity,u,blood. AUC0-last,u,blood was calculated by linear-logarithmic trapezoidal method. AUClast-infinity,u,blood the area remaining under the curve after the last measured concentration, C(last)u,blood was determined from C(last)u,blood/keblood. The elimination rate constant (keblood) and its corresponding half-life (t1/2,blood) were estimated by least squares fit of the data points (log concentration-time). The linear-logarithmic trapezoidal method was used to compute the area under the unbound blood concentration-versus-time moment curve AUMC0-last,u,blood from zero to the last measured concentration. AUMClast-infinity,u,blood the area remaining under the curve after the last measured concentration was determined from: tlast×C(last)u,blood/keblood+C(last)u,blood/keblood^2. The mean residence time from zero to infinity, MRT0-infinity was determined from AUMC0-infinity,u,blood/AUC0-infinity,u,blood. The volume of distribution (VSSu) was obtained from MRT0-infinity×CLu. The AUCu and t1/2,u in tissues were also estimated by the same procedure.

[3] = healthy rats (n = 9), blood, unbound, IV bolus 20 mg/kg
[4] = healthy rats (n = 9), muscle, unbound, IV bolus 20 mg/kg
[5] = healthy rats (n = 9), prostate, unbound, IV bolus 20 mg/kg
[6] = infected rats (n = 11; E. coli ATCC 13441 prostatitis), blood, unbound, IV bolus 20 mg/kg
[7] = infected rats (n = 11; E. coli ATCC 13441 prostatitis), muscle, unbound, IV bolus 20 mg/kg
[8] = infected rats (n = 11; E. coli ATCC 13441 prostatitis), prostate, unbound, IV bolus 20 mg/kg
[9] = prostatitis (infected) rats, FIG. 1C-1D
[10] = infected rats (n = 11; E. coli ATCC 13441 prostatitis)

SMILES: O=c1ccc2ncc(=O)n3c2n1C[C@H]3CN1CCC(NCc2cc3c(cn2)OCCC3)CC1 [gepotidacin, (2R)-2-({4-[(3,4-dihydro-2/pyrano[2,3-c]pyridin-6-ylmethyl)amino]-1-piperidinyl}methyl)-1,2-dihydro-3H,8/2a,5,8a-triazaacenaphthylene-3,8-dione]
- Half-life and Cmax,u in blood, muscle, and prostate, comparison of tissues ([1]; healthy control rats): similar
- Unbound concentration time profile in blood ([1]; healthy control rats, FIG. 1A, 1B): biphasic
- Concentration profiles in prostate and muscle relative to blood ([1]; healthy control rats, with the exception of the first time point, FIG. 1A): almost superimposed with blood concentrations
- CLu (total unbound body clearance) [1, 3]: 44.4 ± 5.1 mL/min/kg
- Cmax,u [1, 3]: 10.3 ± 2.6 µg/mL
- VSSu (volume of distribution) [1, 3]: 3967 ± 557 mL/kg
- t1/2,u [1, 3]: 78 ± 19 min
- Cmax,u [1, 4]: 8.6 ± 2.5 µg/mL
- t1/2,u [1, 4]: 78 ± 9 min
- Cmax,u [1, 5]: 8.2 ± 1.9 µg/mL
- t1/2,u [1, 5]: 68 ± 11 min
- Cmax in prostate, infected compared to healthy rats ([1]; infected rats): slightly lower compared to healthy rats
- Half-lives, comparison of blood, muscle, and prostate ([1]; infected rats): the same between blood, muscle, and prostate
- CLu (total unbound body clearance) [1, 6]: 35.8 ± 5.5 mL/min/kg
- Cmax,u [1, 6]: 12.3 ± 1.9 µg/mL
- VSSu (volume of distribution) [1, 6]: 3344 ± 590 mL/kg
- t1/2,u [1, 6]: 86 ± 23 min
- Cmax,u [1, 7]: 9.9 ± 3.8 µg/mL
- t1/2,u [1, 7]: 77 ± 22 min
- Cmax,u [1, 8]: 6.6 ± 2.7 µg/mL
- t1/2,u [1, 8]: 83 ± 9 min
- Muscle/blood and prostate/blood AUCu ratios, infected compared to healthy rats ([1]; infected vs healthy rats, p>0.05, Wilcoxon test, R software): not significantly different
- Unbound concentration time profile in blood [1, 9]: biphasic
- Unbound concentrations in prostate relative to blood [1, 9]: slightly lower than in blood
- Kp uu ([1]; muscle, healthy rats (n = 9), unbound, IV bolus 20 mg/kg, read-out: AUCu muscle/blood): 1.06 ± 0.17
- Kp uu ([1]; muscle, infected rats (n = 11; E. coli ATCC 13441 prostatitis), unbound, IV bolus 20 mg/kg, read-out: AUCu muscle/blood): 1.03 ± 0.13
- Kp uu ([1]; muscle/blood and prostate/blood, healthy control rats, muscle/blood and prostate/blood, read-out: AUCu ratios): ~1
- Kp uu ([1]; prostate, healthy rats (n = 9), unbound, IV bolus 20 mg/kg, read-out: AUCu prostate/blood): 0.89 ± 0.17
- Kp uu ([1]; prostate, infected rats (n = 11; E. coli ATCC 13441 prostatitis), unbound, IV bolus 20 mg/kg, read-out: AUCu prostate/blood): 0.78 ± 0.21
- AUC ([2]; healthy rats (n = 9)): 405 ± 57 µg·min/mL
- AUC [2, 10]: 472 ± 143 µg·min/mL
- Vd ([2]; healthy rats (n = 9)): 4.26 ± 0.851 L/kg
- half-life ([2]; healthy rats (n = 9)): 72 ± 11.4 min
- clearance ([2]; healthy rats (n = 9)): 50.3 ± 7.1 mL/min/kg
- Vd [2, 10]: 4.02 ± 0.997 L/kg
- half-life [2, 10]: 76.5 ± 9.9 min
- clearance [2, 10]: 45.6 ± 12.8 mL/min/kg
